Test results taken from ChEMBL document CHEMBL1201861, “Genomics of Drug Sensitity in Cancer screening data, Wellcome Trust Sanger Institute”.

Assays:
Assay in all cases: cells
EW-3 = type: functional, cell-based, Homo sapiens; details: Homo sapiens, EW-3;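 also: cell viability assay read-out, IC50 reflects inhibition of growth of the EW-3 cells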
Description: SANGER: Inhibition of human EW-3 cell growth in a cell viability assay.

CGTH-W-1 = type: functional, cell-based, Homo sapiens; details: Homo sapiens, CGTH-W-1;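 also: growth inhibition of human CGTH-W-1 cells measured by cell viability assay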
Description: SANGER: Inhibition of human CGTH-W-1 cell growth in a cell viability assay.

LS-1034 = type: functional, cell-based, Homo sapiens; details: Homo sapiens, LS-1034
Description: SANGER: Inhibition of human LS-1034 cell growth in a cell viability assay.

NOS-1 = type: functional, cell-based, Homo sapiens; details: Homo sapiens, NOS-1;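 also: growth inhibition of the human NOS-1 cell line, read out with a cell viability assay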
Description: SANGER: Inhibition of human NOS-1 cell growth in a cell viability assay.

NCI-H1838 = type: functional, cell-based, Homo sapiens; details: Homo sapiens, NCI-H1838;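 also: growth inhibition of NCI-H1838 cells, determined with a cell viability readout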
Description: SANGER: Inhibition of human NCI-H1838 cell growth in a cell viability assay.

HCC2218 = type: functional, cell-based, Homo sapiens; details: Homo sapiens, HCC2218;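 also: cell viability assay read-out, with IC50 given as the concentration that inhibits growth of the cell line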
Description: SANGER: Inhibition of human HCC2218 cell growth in a cell viability assay.

SW684 = type: functional, cell-based, Homo sapiens; details: Homo sapiens, SW684;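 also: growth inhibition of human SW684 cells, measured by a cell viability assay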
NCI-H1648 = type: functional, cell-based, Homo sapiens; details: Homo sapiens, NCI-H1648;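 also: cell viability assay measuring inhibition of NCI-H1648 cell growth, from the Sanger screening data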
Description: SANGER: Inhibition of human NCI-H1648 cell growth in a cell viability assay.

697 = type: functional, cell-based, Homo sapiens; details: Homo sapiens
MOLT-4 = type: functional, cell-based, Homo sapiens; details: Homo sapiens, MOLT-4;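 also: growth inhibition of MOLT-4 cells, determined with a cell viability readout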
HEL = type: functional, cell-based, Homo sapiens; details: Homo sapiens, HEL;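 also: growth inhibition of HEL cells, read out with a cell viability assay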
Description: SANGER: Inhibition of human HEL cell growth in a cell viability assay.

SF-539 = type: functional, cell-based, Homo sapiens; details: Homo sapiens, SF-539;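 also: Read-out is a cell viability assay, with IC50 reflecting inhibition of cell growth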
Description: SANGER: Inhibition of human SF539 cell growth in a cell viability assay.

TK-10 = type: functional, cell-based, Homo sapiens; details: Homo sapiens, TK-10;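 also: growth inhibition of TK-10 cells, read out in a cell viability assay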
NCI-H1299 = type: functional, cell-based; details: Homo sapiens;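 also: growth inhibition of human NCI-H1299 cells, read out by a cell viability assay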
Description: SANGER: Inhibition of human NCI-H1299 cell growth in a cell viability assay.

SF-126 = type: functional, cell-based, Homo sapiens; details: Homo sapiens, SF-126;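 also: growth inhibition of human SF126 cells, read out with a cell viability assay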
TE-1 = type: functional, cell-based, Homo sapiens; details: Homo sapiens, TE-1
A704 = type: functional, cell-based; details: Homo sapiens;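 also: growth inhibition of human A704 cells, read out with a cell viability assay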
Description: SANGER: Inhibition of human A704 cell growth in a cell viability assay.

LU-139 = type: functional, cell-based, Homo sapiens; details: Homo sapiens, LU-139
OS-RC-2 = type: functional, cell-based, Homo sapiens; details: Homo sapiens, OS-RC-2;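 also: growth inhibition of human OS-RC-2 cells, measured by a cell viability assay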
Description: SANGER: Inhibition of human OS-RC-2 cell growth in a cell viability assay.

ES7 = type: functional, cell-based, Homo sapiens; details: Homo sapiens, ES7;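 also: growth inhibition of cultured human ES7 cells, read out as cell viability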
Description: SANGER: Inhibition of human ES7 cell growth in a cell viability assay.

NCI-H720 = type: functional, cell-based, Homo sapiens; details: Homo sapiens, NCI-H720;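 also: growth inhibition of human NCI-H720 cells determined by a cell viability assay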
Description: SANGER: Inhibition of human NCI-H720 cell growth in a cell viability assay.

D-263MG = type: functional, cell-based, Homo sapiens; details: Homo sapiens, D-263MG
Description: SANGER: Inhibition of human D-263MG cell growth in a cell viability assay.

KS-1 = type: functional, cell-based; details: Homo sapiens;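 also: growth inhibition of KS-1 cells, read out with a cell viability assay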
Description: SANGER: Inhibition of human KS-1 cell growth in a cell viability assay.

SK-NEP-1 = type: functional, cell-based, Homo sapiens; details: Homo sapiens, SK-NEP-1;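 also: growth inhibition of human SK-NEP-1 cells, read out by a cell viability assay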
Description: SANGER: Inhibition of human SK-NEP-1 cell growth in a cell viability assay.

IST-MES1 = type: functional, cell-based, Homo sapiens; details: Homo sapiens, IST-MES1;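 also: growth inhibition of IST-MES1 cells, measured with a cell viability assay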
Description: SANGER: Inhibition of human IST-MES1 cell growth in a cell viability assay.

GOTO = type: functional, cell-based, Homo sapiens; details: Homo sapiens, GOTO;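 also: growth inhibition of GOTO cells, read out by a cell viability assay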
Description: SANGER: Inhibition of human GOTO cell growth in a cell viability assay.

ATN-1 = type: functional, cell-based, Homo sapiens; details: Homo sapiens, ATN-1;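 also: growth inhibition of human ATN-1 cells, read out with a cell viability assay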
Description: SANGER: Inhibition of human ATN-1 cell growth in a cell viability assay.

ES5 = type: functional, cell-based, Homo sapiens; details: Homo sapiens, ES5;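 also: growth inhibition of human ES5 cells, read out by a cell viability assay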
Description: SANGER: Inhibition of human ES5 cell growth in a cell viability assay.

COLO-829 = type: functional, cell-based, Homo sapiens; details: Homo sapiens, COLO-829
Description: SANGER: Inhibition of human COLO-829 cell growth in a cell viability assay.

NCI-H1304 = type: functional, cell-based, Homo sapiens; details: Homo sapiens, NCI-H1304;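 also: growth inhibition of the cancer cell line, measured in a cell viability assay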
Description: SANGER: Inhibition of human NCI-H1304 cell growth in a cell viability assay.

L-428 = type: functional, cell-based, Homo sapiens; details: Homo sapiens, L-428
Description: SANGER: Inhibition of human L-428 cell growth in a cell viability assay.

BB49-HNC = type: functional, cell-based, Homo sapiens; details: Homo sapiens, BB49-HNC;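 also: cell viability assay read-out, reported as inhibition of BB49-HNC cell growth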
Description: SANGER: Inhibition of human BB49-HNC cell growth in a cell viability assay.

ES6 = type: functional, cell-based; details: Homo sapiens;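 also: growth inhibition of human ES6 cells, read out with a cell viability assay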
Description: SANGER: Inhibition of human ES6 cell growth in a cell viability assay.

NH-12 = type: functional, cell-based, Homo sapiens; details: Homo sapiens, NH-12;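 also: growth inhibition of NH-12 cells, read out with a cell viability assay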
Description: SANGER: Inhibition of human NH-12 cell growth in a cell viability assay.

MV4-11 = type: functional, cell-based, Homo sapiens, MV-4-11; details: Homo sapiens, MV4-11;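 also: cell viability readout measuring growth inhibition of human MV-4-11 cells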
Description: SANGER: Inhibition of human MV-4-11 cell growth in a cell viability assay.

SK-LMS-1 = type: functional, cell-based, Homo sapiens; details: Homo sapiens, SK-LMS-1;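 also: growth inhibition of human SK-LMS-1 cells, read out with a cell viability assay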
SK-PN-DW = type: functional, cell-based, Homo sapiens; details: Homo sapiens, SK-PN-DW;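 also: growth inhibition measured with a viability assay on these cells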
Description: SANGER: Inhibition of human SK-PN-DW cell growth in a cell viability assay.

K562 = type: functional, cell-based, Homo sapiens; details: Homo sapiens, K562
NCI-H1770 = type: functional, cell-based, Homo sapiens; details: Homo sapiens, NCI-H1770;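 also: growth inhibition of NCI-H1770 cells determined with a viability readout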
Description: SANGER: Inhibition of human NCI-H1770 cell growth in a cell viability assay.

Mo = type: functional, cell-based, Homo sapiens; details: Homo sapiens, Mo
Description: SANGER: Inhibition of human Mo-T cell growth in a cell viability assay.

NB69 = type: functional, cell-based, Homo sapiens; details: Homo sapiens, NB69;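 also: growth inhibition of NB69 cells, determined by a cell viability assay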
Description: SANGER: Inhibition of human NB69 cell growth in a cell viability assay.

NB13 = type: functional, cell-based, Homo sapiens; details: Homo sapiens, NB13;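 also: cell viability readout measuring growth inhibition of human NB13 cells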
Description: SANGER: Inhibition of human NB13 cell growth in a cell viability assay.

L-363 = type: functional, cell-based, Homo sapiens; details: Homo sapiens, L-363
MPP-89 = type: functional, cell-based, Homo sapiens; details: Homo sapiens, MPP-89;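 also: growth inhibition of human MPP-89 cells, read out with a cell viability assay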
Description: SANGER: Inhibition of human MPP-89 cell growth in a cell viability assay.

SK-MEL-2 = type: functional, cell-based, Homo sapiens; details: Homo sapiens, SK-MEL-2;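 also: growth inhibition of human SK-MEL-2 cells measured with a cell viability assay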
Description: SANGER: Inhibition of human SK-MEL-2 cell growth in a cell viability assay.

TE-12 = type: functional, cell-based, Homo sapiens; details: Homo sapiens, TE-12;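 also: growth inhibition of TE-12 cells, read out by a cell viability assay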
Description: SANGER: Inhibition of human TE-12 cell growth in a cell viability assay.

TE-6 = type: functional, cell-based, Homo sapiens; details: Homo sapiens, TE-6;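 also: growth inhibition of TE-6 cells, read out with a cell viability assay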
Description: SANGER: Inhibition of human TE-6 cell growth in a cell viability assay.

NB10 = type: functional, cell-based, Homo sapiens; details: Homo sapiens, NB10;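 also: growth inhibition of NB10 cells, read out by a cell viability assay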
Description: SANGER: Inhibition of human NB10 cell growth in a cell viability assay.

MFM-223 = type: functional, cell-based, Homo sapiens; details: Homo sapiens, MFM-223
Description: SANGER: Inhibition of human MFM-223 cell growth in a cell viability assay.

DU-4475 = type: functional, cell-based, Homo sapiens; details: Homo sapiens, DU-4475
Description: SANGER: Inhibition of human DU-4475 cell growth in a cell viability assay.

CCCCCCCCCCCC1=C(O)C(=O)C=C(O)C1=O [EMBELIN]
IC50 (EW-3): > 32 µM
IC50 (CGTH-W-1): 16.8 µM
IC50 (LS-1034): > 32 µM
IC50 (NOS-1): 4.67 µM
IC50 (NCI-H1838): > 32 µM
IC50 (HCC2218): 13 µM
IC50 (SW684; read-out: IC50): > 32 µM
IC50 (NCI-H1648): 9.3 µM
IC50 697: > 32 µM
IC50 (MOLT-4): 10.6 µM
IC50 (HEL): 11.2 µM
IC50 (SF-539): 15.4 µM
IC50 (TK-10): > 32 µM
IC50 (NCI-H1299): > 32 µM
IC50 (SF-126): 10.3 µM
IC50 (TE-1): 21.6 µM
IC50 (A704): 10.9 µM
IC50 (LU-139): > 32 µM
IC50 (OS-RC-2): 9.34 µM
IC50 (ES7): 6.6 µM
IC50 (NCI-H720): > 32 µM
IC50 (D-263MG): > 32 µM
IC50 (KS-1): 14.5 µM
IC50 (SK-NEP-1): 15.1 µM
IC50 (IST-MES1): > 32 µM
IC50 (GOTO): 23.6 µM
IC50 (ATN-1): > 32 µM
IC50 (ES5): > 32 µM
IC50 (COLO-829): 5.29 µM
IC50 (NCI-H1304): > 32 µM
IC50 (L-428): 5.39 µM
IC50 (BB49-HNC): > 32 µM
IC50 (ES6): 9.55 µM
IC50 (NH-12): 3.88 µM
IC50 (MV4-11): > 32 µM
IC50 (SK-LMS-1): 5.64 µM
IC50 (SK-PN-DW): 30.6 µM
IC50 (K562): 31.7 µM
IC50 (NCI-H1770): > 32 µM
IC50 (Mo): > 32 µM
IC50 (NB69): > 32 µM
IC50 (NB13): 16.7 µM
IC50 (L-363): 24.1 µM
IC50 (MPP-89): 25.1 µM
IC50 (SK-MEL-2): 11.7 µM
IC50 (TE-12): 14.4 µM
IC50 (TE-6): 24.3 µM
IC50 (NB10): > 32 µM
IC50 (MFM-223): > 32 µM
IC50 (DU-4475): 13.2 µM

Cc1ccc(NC(=O)c2ccc(CN3CCN(C)CC3)cc2)cc1Nc1nccc(-c2cccnc2)n1 [IMATINIB]
IC50 (EW-3): > 2 µM
IC50 (CGTH-W-1): 0.384 µM
IC50 (LS-1034): > 2 µM
IC50 (NOS-1): 1.65 µM
IC50 (NCI-H1838): > 2 µM
IC50 (HCC2218): > 2 µM
IC50 (SW684): > 2 µM
IC50 (NCI-H1648): > 2 µM
IC50 697: > 2 µM
IC50 (MOLT-4): > 2 µM
IC50 (HEL): > 2 µM
IC50 (SF-539): > 2 µM
IC50 (TK-10): > 2 µM
IC50 (NCI-H1299): > 2 µM
IC50 (SF-126): > 2 µM
IC50 (TE-1): > 2 µM
IC50 (A704): > 2 µM
IC50 (LU-139): > 2 µM
IC50 (OS-RC-2): > 2 µM
IC50 (ES7): > 2 µM
IC50 (NCI-H720): > 2 µM
IC50 (D-263MG): > 2 µM
IC50 (KS-1): > 2 µM
IC50 (SK-NEP-1): > 2 µM
IC50 (IST-MES1): > 2 µM
IC50 (GOTO): > 2 µM
IC50 (ATN-1): > 2 µM
IC50 (ES5): > 2 µM
IC50 (COLO-829): > 2 µM
IC50 (NCI-H1304): > 2 µM
IC50 (L-428): > 2 µM
IC50 (BB49-HNC): > 2 µM
IC50 (ES6): > 2 µM
IC50 (NH-12): > 2 µM
IC50 (MV4-11): > 2 µM
IC50 (SK-LMS-1): > 2 µM
IC50 (SK-PN-DW): > 2 µM
IC50 (K562): 0.224 µM
IC50 (NCI-H1770): > 2 µM
IC50 (Mo): > 2 µM
IC50 (NB69): > 2 µM
IC50 (NB13): > 2 µM
IC50 (L-363): > 2 µM
IC50 (MPP-89): > 2 µM
IC50 (SK-MEL-2): > 2 µM
IC50 (TE-12): > 2 µM
IC50 (TE-6): > 2 µM
IC50 (NB10): > 2 µM
IC50 (MFM-223): > 2 µM
IC50 (DU-4475): > 2 µM
